Reference: US11224604B2, “Treatment of graft versus host disease in transplant patients” (PRIOTHERA LIMITED, priority 2013, dated 2022)

System: lethal GvHD in mice
Test: lethal GvHD in mice (BALB/c splenic cells into cyclophosphamide-treated BDF1 mice)
Format: in vivo
Settings: day 1 to day 20
Experimental: Female BALB/cAnNCrj mice and female Crj:BDF1 mice were purchased from CHARLES RIVER JAPAN and used at 10 weeks of age as donors and recipients, respectively.
Spleens were collected from donor BALB/c mice. […] The single cell suspension was passed through a cell strainer (70 um, FALCON). The filtrate was centrifuged to collect the cell pellet. […] The number of nucleated cells in the suspension was calculated by staining using Turk's solution. […] This suspension served as a splenic cell suspension.
Recipient BDF1 mice were treated with a dose of cyclophosphamide (SHIONOGI & CO., LTD.) at 300 mg/kg intraperitoneally on day0. One day after cyclophosphamide treatment, the BDF1 mice were intravenously injected with 0.25 mL
(5×10^7 cells/mouse) of the splenic cell suspension from BALB/c mice to induce lethal GvHD.
Treatment with a Compound (Control/CsA/KRP203)
The compounds were orally administrated once a day from day 1 (just after injection of the splenic cells) to day 20. The mice were observed until day 70.

Structure (SMILES): NC(CO)(CO)CCc1ccc(Sc2cccc(OCc3ccccc3)c2)cc1Cl [KRP-203, 2-amino-2-[4-(3-benzyloxyphenylthio)-2-chlorophenyl]ethyl-propane-1,3-diol]
- % Survival (KRP-203 0.01 mg/kg orally once a day, Day 5 after injection of the splenic cells): 100%
- % Survival (KRP-203 0.01 mg/kg orally once a day, Day 8 after injection of the splenic cells): 89%
- % Survival (KRP-203 0.01 mg/kg orally once a day, Day 10 after injection of the splenic cells): 67%
- % Survival (KRP-203 0.01 mg/kg orally once a day, Day 12 after injection of the splenic cells): 44%
- % Survival (KRP-203 0.01 mg/kg orally once a day, Day 20 after injection of the splenic cells): 44%
- % Survival (KRP-203 0.01 mg/kg orally once a day, Day 25 after injection of the splenic cells): 44%
- % Survival (KRP-203 0.01 mg/kg orally once a day, Day 30 after injection of the splenic cells): 44%
- % Survival (KRP-203 0.01 mg/kg orally once a day, Day 40 after injection of the splenic cells): 33%
- % Survival (KRP-203 0.01 mg/kg orally once a day, Day 70 after injection of the splenic cells): 33%
- % Survival (KRP-203 0.03 mg/kg orally once a day, Day 5 after injection of the splenic cells): 100%
- % Survival (KRP-203 0.03 mg/kg orally once a day, Day 8 after injection of the splenic cells): 100%
- % Survival (KRP-203 0.03 mg/kg orally once a day, Day 10 after injection of the splenic cells): 100%
- % Survival (KRP-203 0.03 mg/kg orally once a day, Day 12 after injection of the splenic cells): 100%
- % Survival (KRP-203 0.03 mg/kg orally once a day, Day 20 after injection of the splenic cells): 100%
- % Survival (KRP-203 0.03 mg/kg orally once a day, Day 25 after injection of the splenic cells): 100%
- % Survival (KRP-203 0.03 mg/kg orally once a day, Day 30 after injection of the splenic cells): 100%
- % Survival (KRP-203 0.03 mg/kg orally once a day, Day 40 after injection of the splenic cells): 100%
- % Survival (KRP-203 0.03 mg/kg orally once a day, Day 70 after injection of the splenic cells): 100%
- % Survival (KRP-203 0.1 mg/kg orally once a day, Day 5 after injection of the splenic cells): 100%
- % Survival (KRP-203 0.1 mg/kg orally once a day, Day 8 after injection of the splenic cells): 100%
- % Survival (KRP-203 0.1 mg/kg orally once a day, Day 10 after injection of the splenic cells): 100%
- % Survival (KRP-203 0.1 mg/kg orally once a day, Day 12 after injection of the splenic cells): 100%
- % Survival (KRP-203 0.1 mg/kg orally once a day, Day 20 after injection of the splenic cells): 100%
- % Survival (KRP-203 0.1 mg/kg orally once a day, Day 25 after injection of the splenic cells): 100%
- % Survival (KRP-203 0.1 mg/kg orally once a day, Day 30 after injection of the splenic cells): 100%
- % Survival (KRP-203 0.1 mg/kg orally once a day, Day 40 after injection of the splenic cells): 100%
- % Survival (KRP-203 0.1 mg/kg orally once a day, Day 70 after injection of the splenic cells): 100%
- % Survival (KRP-203 0.3 mg/kg orally once a day, Day 5 after injection of the splenic cells): 100%
- % Survival (KRP-203 0.3 mg/kg orally once a day, Day 8 after injection of the splenic cells): 100%
- % Survival (KRP-203 0.3 mg/kg orally once a day, Day 10 after injection of the splenic cells): 100%
- % Survival (KRP-203 0.3 mg/kg orally once a day, Day 12 after injection of the splenic cells): 100%
- % Survival (KRP-203 0.3 mg/kg orally once a day, Day 20 after injection of the splenic cells): 100%
- % Survival (KRP-203 0.3 mg/kg orally once a day, Day 25 after injection of the splenic cells): 100%
- % Survival (KRP-203 0.3 mg/kg orally once a day, Day 30 after injection of the splenic cells): 100%
- % Survival (KRP-203 0.3 mg/kg orally once a day, Day 40 after injection of the splenic cells): 100%
- % Survival (KRP-203 0.3 mg/kg orally once a day, Day 70 after injection of the splenic cells): 100%
- % Survival (KRP-203 1 mg/kg orally once a day, Day 5 after injection of the splenic cells): 100%
- % Survival (KRP-203 1 mg/kg orally once a day, Day 8 after injection of the splenic cells): 100%
- % Survival (KRP-203 1 mg/kg orally once a day, Day 10 after injection of the splenic cells): 100%
- % Survival (KRP-203 1 mg/kg orally once a day, Day 12 after injection of the splenic cells): 100%
- % Survival (KRP-203 1 mg/kg orally once a day, Day 20 after injection of the splenic cells): 100%
- % Survival (KRP-203 1 mg/kg orally once a day, Day 25 after injection of the splenic cells): 100%
- % Survival (KRP-203 1 mg/kg orally once a day, Day 30 after injection of the splenic cells): 100%
- % Survival (KRP-203 1 mg/kg orally once a day, Day 40 after injection of the splenic cells): 100%
- % Survival (KRP-203 1 mg/kg orally once a day, Day 70 after injection of the splenic cells): 100%
